Assays:
Procathepsin L = Procathepsin L (Homo sapiens, UniProt P07711); assay: Inhibition of human liver Cathepsin L using Z-Phe-Arg7-amido-4-methylcoumarin hydrochloride as substrate by FRET assay
[1] = molecular target: Replicase polyprotein 1ab (Severe acute respiratory syndrome coronavirus 2, UniProt P0DTD1)

Chain of Procathepsin L (P07711 whole entry): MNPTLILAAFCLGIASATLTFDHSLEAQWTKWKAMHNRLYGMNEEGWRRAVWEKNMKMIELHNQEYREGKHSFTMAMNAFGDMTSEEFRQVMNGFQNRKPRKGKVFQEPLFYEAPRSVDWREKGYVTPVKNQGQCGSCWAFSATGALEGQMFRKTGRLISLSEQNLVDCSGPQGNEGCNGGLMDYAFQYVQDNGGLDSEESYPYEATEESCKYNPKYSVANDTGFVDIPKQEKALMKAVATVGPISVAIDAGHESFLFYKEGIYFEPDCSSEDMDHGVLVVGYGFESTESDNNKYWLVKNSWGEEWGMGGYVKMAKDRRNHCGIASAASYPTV

SMILES | IC50 (Procathepsin L) | IC50 [1]
O=C1N(Cc2ccccc2Cl)CCN1c1cncc2ccc(Cl)cc12 | > 125 µM | 
O=C(c1cccnc1)N1CCN(Cc2cc(Cl)cc(Cl)c2OC(F)F)CC1 | > 125 µM | 63 µM
Cc1cncc(CC(=O)N2CCC[C@H]2c2cccc(Cl)c2)c1 | > 125 µM | 
O=C(c1cccnc1)N1CCN(Cc2cccc(Cl)c2Cl)CC1 | > 125 µM | 63.5 µM
N#Cc1ccccc1CN1CCCN(C(=O)c2cncc(Cl)c2)CC1 | > 125 µM | 
Cc1cncc(CC(=O)N2CCc3cc(Cl)c(Cl)cc3C2)c1 | > 125 µM | 
O=C(c1cncc(Cl)c1)N1CCCN(Cc2ccccc2Cl)CC1 | > 125 µM | 
O=C1N(Cc2ccc(Cl)cc2Cl)CCN1c1cncc2ccccc12 | > 125 µM | 
O=C(Cc1cccnc1)N1CCc2c(Cl)cc(Cl)cc2C1 | > 125 µM | 
O=C(c1cncc2ccc(F)cc12)N1CCN(Cc2ccc(Cl)cc2Cl)CC1 | > 125 µM | 
O=C1N[C@@H](Cc2cc(Cl)ccc2F)C(=O)N1c1cncc(F)c1 | > 125 µM | 
O=C(Nn1cnc2c(F)cc(F)cc21)C1COc2cc(Cl)c(Cl)cc21 (racemic) | 103 µM | 

— ChEMBL document CHEMBL5532764, “Identification of SARS-CoV-2 Mpro inhibitors through deep reinforcement learning for de novo drug design and computational chemistry approaches” (RSC Med Chem, 2024)
